According to US9861635B2, “Macrocycles as kinase inhibitors” (Merck Patent GmbH, priority 2013, dated 2018):

Target: T1, GCN2 (Homo sapiens, UniProt Q9P2K8)
Assay: Cellular assay of GCN2 activity (phospho-eIF2alpha immunocytochemistry in U2OS cells, tryptophanol)
Format: cell-based
Parameters: endogenous in cells; host or cells: U2OS
Settings: 2 h compound, 600 μM tryptophanol 30 min
Description: Cellular Assay for the Determination of Compound Activities
Human U2OS cells (2000 cells/well) are seeded into 384-well plates and incubated for 20 hours.
The next day, the cells are treated with the test compounds and incubated for 2 hours. Then, tryptophanol, at a final concentration of 600 μM, is added to the cells and those are incubated for 30 minutes.
The analysis of cellular GCN2 activities is done by immunocytochemistry. Briefly, cells are fixated on the well surfaces by formaldehyde and permeabilized with Triton X-100. The primary antibody (anti-phospho-eIF2alpha (Ser51, Cell Signalling Technology, #3398) is incubated on the treated cells for 20 hours, followed by a 60 minutes incubation of the secondary antibody (anti-rabbit-IgG-Alexa 488; Molecular Probes #11008).
The analysis and quantification of phosphorylated GCN2 is done by scanning the plates in the Acumen Explorer system (TTPLabtech). The obtained data are normalised against the untreated control wells (DMSO only) and expressed as % effect values. The determination of IC50 values is done by using the Graph Pad Prism software.

T1 sequence (Q9P2K8 whole entry): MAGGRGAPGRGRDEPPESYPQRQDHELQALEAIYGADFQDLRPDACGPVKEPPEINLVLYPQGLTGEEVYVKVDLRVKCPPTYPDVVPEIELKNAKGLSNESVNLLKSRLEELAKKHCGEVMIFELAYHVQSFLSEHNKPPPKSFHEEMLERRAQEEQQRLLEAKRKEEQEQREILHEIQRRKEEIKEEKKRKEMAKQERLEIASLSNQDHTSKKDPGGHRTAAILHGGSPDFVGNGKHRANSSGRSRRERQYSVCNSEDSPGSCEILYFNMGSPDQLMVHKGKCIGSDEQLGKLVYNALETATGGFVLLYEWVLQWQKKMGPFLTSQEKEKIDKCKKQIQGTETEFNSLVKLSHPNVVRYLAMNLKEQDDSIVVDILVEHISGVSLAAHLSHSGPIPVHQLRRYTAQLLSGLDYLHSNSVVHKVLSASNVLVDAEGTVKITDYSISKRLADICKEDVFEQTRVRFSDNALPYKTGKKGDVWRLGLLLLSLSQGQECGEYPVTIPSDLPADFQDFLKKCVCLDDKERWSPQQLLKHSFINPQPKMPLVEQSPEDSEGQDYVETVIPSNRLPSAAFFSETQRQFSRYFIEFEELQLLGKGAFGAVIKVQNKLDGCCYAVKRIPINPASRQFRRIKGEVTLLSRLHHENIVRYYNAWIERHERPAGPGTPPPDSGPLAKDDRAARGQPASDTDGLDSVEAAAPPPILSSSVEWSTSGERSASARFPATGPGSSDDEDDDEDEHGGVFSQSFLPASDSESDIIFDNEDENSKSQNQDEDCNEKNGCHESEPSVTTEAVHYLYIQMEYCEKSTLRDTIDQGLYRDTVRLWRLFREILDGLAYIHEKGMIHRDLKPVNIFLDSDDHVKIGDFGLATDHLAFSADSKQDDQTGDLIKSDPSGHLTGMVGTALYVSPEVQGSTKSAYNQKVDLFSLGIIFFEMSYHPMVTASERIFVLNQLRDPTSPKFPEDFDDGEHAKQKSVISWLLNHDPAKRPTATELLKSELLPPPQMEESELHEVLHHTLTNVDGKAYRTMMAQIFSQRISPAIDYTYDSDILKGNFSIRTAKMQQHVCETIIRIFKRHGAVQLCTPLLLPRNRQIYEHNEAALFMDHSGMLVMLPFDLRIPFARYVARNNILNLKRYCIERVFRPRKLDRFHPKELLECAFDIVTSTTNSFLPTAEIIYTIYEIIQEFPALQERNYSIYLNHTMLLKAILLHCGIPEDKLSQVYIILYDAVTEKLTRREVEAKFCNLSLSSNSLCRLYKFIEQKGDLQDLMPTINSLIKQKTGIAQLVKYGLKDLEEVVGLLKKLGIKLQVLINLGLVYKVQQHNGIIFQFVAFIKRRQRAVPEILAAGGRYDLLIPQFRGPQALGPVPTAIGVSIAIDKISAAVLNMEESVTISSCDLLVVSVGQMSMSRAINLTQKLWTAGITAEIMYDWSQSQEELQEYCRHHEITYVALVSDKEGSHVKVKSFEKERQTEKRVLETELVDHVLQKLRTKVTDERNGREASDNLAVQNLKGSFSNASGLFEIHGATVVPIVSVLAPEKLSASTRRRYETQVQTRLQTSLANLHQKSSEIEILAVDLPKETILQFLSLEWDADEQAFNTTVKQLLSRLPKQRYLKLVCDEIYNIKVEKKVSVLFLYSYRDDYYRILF

| SMILES | IC50 |
| --- | --- |
| O=C1CCCCOc2ccc(cc2)-n2nnc3cnc(nc32)Nc2cnn(c2)CCCN1 [Compound A26] | < 1000 nM |

Target: T1, GCN2
Assay: GCN2 enzyme assay (TR-FRET Lanthascreen, GFP-eIF2alpha substrate)
Format: biochemical
Settings: 10 μM ATP, 80 nM GFP-eIF2a, 30 nM GCN2
Description: GCN2: Assay Principle & Conditions
This assay can quantificate the activity of the serin kinase GCN2 (general control non-derepressible-2).
This kinase is involved in the stress metabolism of cells. It is activated upon starvation (amino acid depletion). Its natural substrate is eIF2a (eukaryotic initiation factor 2 alpha subunit), a translation factor, which gets activated (phosphorylated) by GCN2 in case of an amino acid bottleneck in the cells. This in turn leads to a halt of the protein synthesis. Inhibition of GCN2 results in stopping this mechanism: The cell can not stop protein production upon “starvation” stress.
The assay is run in two steps: the enzymatic reaction and the detection step. In the first step GCN2 is incubated with 10 μM ATP and 80 nM of the GFP-labelled substrate eIF2alpha at room temperature.
The enzymatic reaction is stopped by addition of EDTA. The amount of phosphorylated eIF2alpha is determined by TR-FRET (Lanthascreen): A complex is formed consisting of antibody and GFP labelled phospho-eIF2a, which allows a FRET upon excitation at 340 nm.
The GCN2-activity is directly proportional to the ratio of fluorescence units at the emission wavelength 520 nm (phosphopeptide-sensitive wavelength=emission of GFP) to the units at 495 nm (reference wavelength=emission of Terbium-chelate).
Final Concentrations in the Enzymatic Reaction

| SMILES | IC50 |
| --- | --- |
| O=C1CCn2cc(cn2)-n2nnc3cnc(nc32)Nc2ccc(cc2)OCCCCN1 [Compound A9] | 5000 to 10000 nM |
| O=C1CCCOc2ccc(cc2)-n2cnc3cnc(nc32)Nc2cnn(c2)CCCN1 [Compound A14] | < 1000 nM |
| O=C1CCOc2ccc(cc2)-n2nnc3cnc(nc32)Nc2ccc(cc2)CCCN1 [Compound A5] | 5000 to 10000 nM |
| c1cc2ccc1CCNCCCCn1cc(cn1)Nc1ncc3nnn-2c3n1 [Compound A25] | < 1000 nM |
| O=C1CCn2cc(cn2)-n2nnc3cnc(nc32)Nc2cccc(c2)OCCCN1 [Compound A11] | < 1000 nM |
| O=C1CCCn2cc(cn2)Nc2ncc3nnn(c3n2)-c2ccc(cc2)OCCCN1 [Compound A24] | < 1000 nM |
| O=C1CCCOc2ccc(cc2)-n2cnc3cnc(nc32)Nc2ccc(cc2)OCCCN1 [Compound A15] | < 1000 nM |
| O=C1CCCOc2ccc(cc2)-n2nnc3cnc(nc32)Nc2ccc(cc2)OCCCCN1 [Compound A4] | < 1000 nM |
| O=C1CCCc2ccc(cc2)Nc2ncc3ncn(c3n2)-c2ccc(cc2)OCCCCN1 [Compound A27] | 1000 to 5000 nM |
| O=C1CCCCOc2ccc(cc2)-n2nnc3cnc(nc32)Nc2cnn(c2)CCCN1 [Compound A26] | < 1000 nM |
| O=C1CCn2cc(cn2)-n2nnc3cnc(nc32)Nc2ccc(cc2)OCCCN1 [Compound A8] | 5000 to 10000 nM |
| O=C1CCOc2ccc(cc2)-n2nnc3cnc(nc32)Nc2cnn(c2)CCCN1 [Compound A1, 2,7-diaza-11-oxa-3H-1(5,3)-[1,2,3]triazolo[4,5-d]pyrimidina-1H-3(4,1)-pyrazola-12(1,4)-benzenacyclododecaphane-8-one] | < 1000 nM |
| O=C1CCCCOc2ccc(cc2)Nc2ncc3nnn(c3n2)-c2cnn(c2)CCCN1 [Compound A7] | < 1000 nM |
| O=C1CCCOc2ccc(cc2)-n2nnc3cnc(nc32)Nc2cnn(c2)CCCN1 [Compound A2] | < 1000 nM |
| O=C1CCCOc2ccc(cc2)-n2cnc3cnc(nc32)Nc2ccc(cc2)CCCN1 [Compound A18] | < 1000 nM |
| O=C1CCCn2cc(cn2)Nc2ncc3nnn(c3n2)-c2cnn(c2)CCCN1 [Compound A23] | < 1000 nM |
| c1nn2cc1Nc1ncc3nnn(c3n1)-c1ccc(cc1)OCCNCCC2 [Compound A10] | < 1000 nM |
| O=C1CCCCOc2ccc(cc2)-n2cnc3cnc(nc32)Nc2ccc(cc2)OCCCN1 [Compound A16] | < 1000 nM |
| O=C1CCCOc2ccc(cc2)-n2nnc3cnc(nc32)Nc2cnn(c2)CCN2CCN(CCCN1)CC2 [Compound A21] | < 1000 nM |
| O=C1CCCOc2ccc(cc2)-n2cnc3cnc(nc32)Nc2cnn(c2)CCCO1 [Compound A20] | 1000 to 5000 nM |
| O=C1COc2ccc(cc2)-n2nnc3cnc(nc32)Nc2cnn(c2)CCCN1 [Compound A3] | 1000 to 5000 nM |
| O=C1CCCCOc2ccc(cc2)-n2nnc3cnc(nc32)Nc2cnn(c2)CCC2CCN1CC2 [Compound A17] | 1000 to 5000 nM |
| O=C1CCCOc2ccc(cc2)-n2nnc3cnc(nc32)Nc2ccc(cc2)CCCN1 [Compound A6] | 1000 to 5000 nM |
| O=C1CCCCOc2ccc(cc2)-n2cnc3cnc(nc32)Nc2ccc(cc2)CCCN1 [Compound A19] | < 1000 nM |
| O=C1CCCn2cc(cn2)Nc2ncc3nnn(c3n2)-c2ccc(cc2)CN1 [Compound A22] | 1000 to 5000 nM |
| O=C1CCCOc2ccc(cc2)-n2nnc3cnc(nc32)Nc2cccc(c2)OCCCN1 [Compound A13] | < 1000 nM |
| CN1CCCCn2cc(cn2)Nc2ncc3nnn(c3n2)-c2ccc(cc2)OCCCCC1=O [Compound A12] | < 1000 nM |
